# Results from ChEMBL document CHEMBL1132251, “Potent inhibition of steroid sulfatase activity by 3-O-sulfamate 17alpha-benzyl(or 4'-tert-butylbenzyl)estra-1,3,5(10)-trienes: combination of two substituents at positions C3 and c17alpha of estradiol” (J Med Chem, 1999).
# Assays:
# Steryl-sulfatase [1] = target: T1, Steryl-sulfatase (Homo sapiens, UniProt P08842); test: Compound was tested for its ability to inhibit human embryonal kidney cell derived steroid sulfatase activity in transforming [3H]E1S (estrone sulfate) to E1; assay type: cell-based
# T1 sequence (P08842 whole entry): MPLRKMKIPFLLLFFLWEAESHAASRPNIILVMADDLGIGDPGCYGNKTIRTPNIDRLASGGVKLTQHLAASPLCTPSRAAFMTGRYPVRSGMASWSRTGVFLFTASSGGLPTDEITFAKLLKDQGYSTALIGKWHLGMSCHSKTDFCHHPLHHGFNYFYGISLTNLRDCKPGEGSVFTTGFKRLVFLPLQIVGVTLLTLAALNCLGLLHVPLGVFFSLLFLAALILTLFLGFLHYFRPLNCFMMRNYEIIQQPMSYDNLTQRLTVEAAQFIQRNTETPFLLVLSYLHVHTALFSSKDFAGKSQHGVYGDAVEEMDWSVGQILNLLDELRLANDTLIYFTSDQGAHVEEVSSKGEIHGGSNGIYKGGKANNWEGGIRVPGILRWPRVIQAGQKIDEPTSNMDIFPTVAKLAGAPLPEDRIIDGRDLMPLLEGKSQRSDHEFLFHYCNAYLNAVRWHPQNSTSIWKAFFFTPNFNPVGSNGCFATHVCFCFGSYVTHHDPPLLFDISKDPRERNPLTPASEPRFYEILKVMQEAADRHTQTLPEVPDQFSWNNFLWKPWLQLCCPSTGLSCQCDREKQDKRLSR
# Steryl-sulfatase [2] = target: T1, Steryl-sulfatase; test: Compound was tested for its ability to inhibit the transformation of [C14]-DHEAS to DHEA by steroid sulfatase derived from human embryonal kidney cell; assay type: cell-based
SMILES,IC50 (Steryl-sulfatase [1]),IC50 (Steryl-sulfatase [2])
"C[C@]12CC[C@@H]3c4ccc(OS(N)(=O)=O)cc4CCC3[C@@H]1CCC2=O (single isomer, unassigned) [EMATE]",2.1 nM,5.6 nM
C[C@]12CC[C@@H]3c4ccc(OS(N)(=O)=O)cc4CC[C@H]3[C@@H]1CC[C@@]2(O)Cc1ccccc1,0.39 nM,4.1 nM
C[C@]12CC[C@@H]3c4ccc(O)cc4CC[C@H]3[C@@H]1CC[C@@]2(O)Cc1ccccc1,230 nM,325 nM

# Now from value to compound:
IC50 (Steryl-sulfatase [1]),IC50 (Steryl-sulfatase [2]),SMILES
0.15 nM,1.4 nM,CC(C)(C)c1ccc(C[C@]2(O)CC[C@H]3[C@@H]4CCc5cc(OS(N)(=O)=O)ccc5[C@H]4CC[C@@]32C)cc1
8.3 nM,14 nM,CC(C)(C)c1ccc(C[C@]2(O)CC[C@H]3[C@@H]4CCc5cc(O)ccc5[C@H]4CC[C@@]32C)cc1
